In patent US20210196724A1, “BIARYL COMPOSITIONS AND METHODS FOR MODULATING A KINASE CASCADE” (Athenex, Inc., priority 2016, published 2021):
“And” between values parts separate entries of the source, which are not always exact repeats. Equal values may be shown once. Read-outs that look alike come from different tables or passages of the source.

What was measured:
GL261 cells = experiment: MTT cell growth inhibition (GI50), GL261; format: cell-based, murine; conditions: 3 days
Procedure: (§1) The drug concentration required to block net cell growth by 50% relative to a control sample is measured as the GI50. The GI50s for several of the compounds of the application were assayed as described.
(§2) MTT assay: U87 and GL261 cells were seeded in 96-well plate (6×10^3 cells in 100 μl of DMEM+10% FBS media per well) and incubated overnight at 37° C. with 5% CO2. All test compounds were diluted (10 point 2-fold serial dilution) in a separate 96-well plate to yield 10× of final concentrations (0.5-256 nM). A volume of 11 μl of 10× dilutions was added to appropriate wells (n=3). To value (reflecting the starting number of cells upon drug treatment) was determined by following steps as described below. After 3 days incubation at 37° C. with 5% CO2, 10 μl of MTT solution (5 mg/ml in PBS) was added to each well and plates were incubated at 37° C. for 3 h to allow MTT to form formazan crystals by reacting with metabolically active cells. 100 μl of 20% SDS was added to each well and plates were incubated overnight at 37° C. with 5% CO2. Afterward, OD570 was measured using microplate reader. The cell growth percentage of control was calculated according to percentage of control=(T−T0)/(C−T0)×100% or OD value of the test well exposure to test drug—OD value at time zero/(OD of the control well without drug treatment−OD value at time zero)×100%. Growth inhibition curves and GI50 were determined using GraphPad Prism 5 software.

U87 cells = experiment: MTT cell growth inhibition (GI50), U87; format: cell-based, human; conditions: 3 days
Procedure: as §1, §2

Jurkat = experiment: Cell growth inhibition (GI50), Jurkat; format: cell-based
Procedure: as §1

HT-29 = experiment: Cell growth inhibition (GI50), HT-29; format: cell-based
Procedure: as §1

GI50 (U87 cells): 4 nM
GI50 (Jurkat): 2.5 nM
GI50 (Jurkat; Homo sapiens): 2.3 nM
GI50 (HT-29; HT-29): 2.5 nM
GI50 (HT-29; Homo sapiens, HT-29, HT-29): 3.1 nM
Structure (SMILES): Cc1cc(N2CCOC[C@@H]2C)ccc1-c1ccc(CC(=O)NCc2ccccc2)nc1 (stereo in doubt) [Compound 104]
GI50 (GL261 cells): 10 nM and 5.3 nM
